From patent US4900757A, “Hypocholesterolemic and antiatherosclerotic uses of bix(3,5-di-tertiary-butyl-4-hydroxyphenylthio)methane” (Merrell Dow Pharmaceuticals Inc., priority 1988, dated 1990)

Tests used:
[1] = tested on: Watanabe heritable hyperlipidemic (WHHL) rabbit; test: Antiatherosclerotic and hypocholesterolemic effects in the Watanabe Heritable Hyperlipidemic rabbit (Example 2); format: in vivo; conditions: for Aortic Lesions, as a percent of control group / HDL Protein, as a percent of control group / LDL Cholesterol, as a percent of control group / Plasma Cholesterol, as a percent of control group: mean vs respective control group
From the text: Divide Watanabe Heritable Hyperlipidemic rabbits (WHHL), 13 to 15 weeks of age, into two treatment groups of 4 to 5 rabbits each. To one treatment group feed standard rabbit chow [Control Group], and to the other group feed standard rabbit chow containing the test compound (1% by weight) [Treatment Group]. In one experiment, probucol is the active treatment [Treatment Group A]. In another experiment, bis(3,5-di-tertiarybutyl-4-hydroxyphenylthio)methane is the active treatment [Treatment Group B].
After 12 weeks of treatment, sacrifice the study animals and take plasma and aorta samples. Determine for each study animal the extent of the atherosclerotic lesions of the aorta by the method of Badimon et al. [Atherosclerosis 61, 57 (1986)]. Determine for each study animal plasma cholesterol concentrations by an enzymatic method using a DACOS analyzer (Coulter Electronics Inc., Hialeah, Florida, USA). Isolate plasma lipoproteins by sequential ultracentrifugation and determine LDL and HDL cholesterol and protein by the method of Mao et al. [Biochemistry 14, 4127 (1975)].

mice = conditions: cited from earlier work
WHHL rabbit = conditions: in words; cited from earlier work
LDL [2] = conditions: in vitro; in words; cited from earlier work
LDL [3] = conditions: in words; cited from earlier work
human LDL = test: Inhibition of LDL peroxidation (cupric sulfate, thiobarbituric acid assay; Example 3); conditions: ratio of ID50, in words
[4] = 1% (w/w) in feed, 12 weeks, in words

CC(C)(Sc1cc(C(C)(C)C)c(O)c(C(C)(C)C)c1)Sc1cc(C(C)(C)C)c(O)c(C(C)(C)C)c1 [Probucol, 2,2'-bis(3,5-di-tertiary-butyl-4-hydroxyphenylthio)propane, reference compound]
Aortic Lesions, as a percent of control group ([1]; 1% (w/w) in feed, 12 weeks): -33% | HDL Protein, as a percent of control group ([1]; 1% (w/w) in feed, 12 weeks): -21% | LDL Cholesterol, as a percent of control group ([1]; 1% (w/w) in feed, 12 weeks): -15% | Plasma Cholesterol, as a percent of control group ([1]; 1% (w/w) in feed, 12 weeks): -12% | amount of HDL in the blood, as measured by HDL protein [1, 4]: decreased | reduction in the blood cholesterol of mice (mice; 2 week treatment): 59% | preventing the progression of atherosclerosis in WHHL rabbit (WHHL rabbit): effective in preventing the progression of atherosclerosis | inhibition of oxidative modification of LDL by cupric ions (LDL [2]): inhibits the oxidative modification of LDL | inhibition of oxidative modification of LDL by endothelial cells (LDL [3]): inhibits the oxidative modification of LDL

CC(C)(C)c1cc(SCSc2cc(C(C)(C)C)c(O)c(C(C)(C)C)c2)cc(C(C)(C)C)c1O
Aortic Lesions, as a percent of control group ([1]; 1% (w/w) in feed, 12 weeks): -38% | HDL Protein, as a percent of control group ([1]; 1% (w/w) in feed, 12 weeks): +8% | LDL Cholesterol, as a percent of control group ([1]; 1% (w/w) in feed, 12 weeks): -35% | Plasma Cholesterol, as a percent of control group ([1]; 1% (w/w) in feed, 12 weeks): -20% | amount of HDL in the blood, as measured by HDL protein [1, 4]: increased | reduction of LDL cholesterol compared with probucol [1, 4]: to a greater extent than probucol | reduction of aortic lesions compared with probucol [1, 4]: to a greater extent than probucol | reduction of plasma cholesterol compared with probucol [1, 4]: to a greater extent than probucol | progression of atherosclerosis in the WHHL rabbit ([1]; in words): prevents the progression of atherosclerosis | serum cholesterol in the WHHL rabbit ([1]; in words): reduces serum cholesterol | reduction in the blood cholesterol of mice, in words (mice; comparable treatment (to 2 weeks probucol)): no reduction | effectiveness in inhibiting peroxidation of human LDL relative to probucol (human LDL): over twice as effective
